# Experimental data as given in patent publication US5861263A, “Preparation of preserved entamoeba histolytica antigens without enzymatic inhibitors and their use in immunological methods” (Universidad Autonoma De Nuevo Leon, priority 1992, dated 1999).
# System: proteases of Entamoeba histolytica crude extract
# Test: Inhibition of crude amebic extract proteolytic activity (hide powder azure)
# Format: biochemical, Entamoeba histolytica HK-9
# Conditions: 4 mM iodoacetamide
# Description: The second method was carried out according to Rinderknecht et al., Clinica Chimica Acta., 21: 197-203 (1968). The activity corresponding to 6 million trophozoites was tested. Crude amebic extracts, IC:M and IC:MC were used. The samples were resuspended in 1.5 ml 0.05M Tris-HCL pH 7.5 containing 0.5% Triton X-100, and incubated for one hour at 4° C. and centrifuged at 11,000×g for 15 minutes. One ml. of the supernatant was added to 1 ml Tris-HCl containing 5 mg hide powder azure and 100 μl .2M cysteine. The samples were incubated at 37° C. for 1 hour and at the end of which the reaction was stopped by putting the tubes in an ice water bath. They were cold-centrifuged for 5 minutes at 450×g. The absorbency of the supernatants were determined at a wavelength of 600 nm. The former treatment was also done with samples that were incubated in the presence of SDS 2% or 2-ME 5% or 4 mM iodoacetamide. The positive control was taken as the activity obtained with 0.23 mg papain, which was activated with 0.7 mM 2-ME in Tris-HCl 0.05M at pH 8.0 at 4° C. for 10 minutes and then at 37° C. for 15 minutes with frequent stirring. Reaction mixtures without extracts were used as the negative control.
compound,measurement,value
NC(=O)CI [iodoacetamide],inhibition of the activity of the crude extract,approximately 70%
